Earlier results as cited in patent publication US20170273925A1 (Cumberland Pharmaceuticals Inc., priority 2014, published 2017).

Solubility in water: very poorly soluble in water
SMILES: CC(C)Cc1ccc(C(C)C(=O)O)cc1 (stereo not shown) [ibuprofen, 2-(4-isobutylphenyl) propionic acid]
